How the values were obtained:
[1] = system: dihydrotestosterone secretion in TM3 cells; experiment: Dihydrotestosterone secreted by TM3 cells (ELISA); type: cell-based, mouse; conditions: sildenafil 200 μg/mL, positive control in dihydrotestosterone test, FIG. 16
Experimental: 3. Dihydrotestosterone (DHT) Content
TM3 cells was cultured with the oyster peptide culture solution for 24 h, the obtained culture solution was centrifuged, a supernatant was taken and mixed uniformly, and the content of dihydrotestosterone was detected according to instructions of ELISA kit.
Operation procedure for detecting dihydrotestosterone: (1) Standards were added into standard wells at 50 μL/well. (2) 40 μL of sample diluent was added to sample wells and then 10 μL of the sample to be tested was added, and nothing was added to the blank wells. (3) The reaction wells were sealed with the plate-sealing film and incubated at 37° C. for 45 min. […] (10) A stop solution was added at 50 μL/well and mixed uniformly and then the OD450 value was measured.
Dihydrotestosterone is a steroid hormone secreted by testes and a main male hormone in the human body, is related to the development of male secondary sexual characteristics and plays an important role in maintaining normal sexual desire. In this test example, the oyster peptide culture solutions of Example 1 at different concentrations and the oyster peptide culture solutions of Examples 1-3 and Comparative Examples 1-4 at the same concentration were used to treat TM3 cells for 24 h, and then the supernatants of cells were collected, and the contents of dihydrotestosterone secreted by the cells were measured by the ELISA method. […]

[2] = system: NO content in TM3 cells; experiment: NO content in TM3 cells (NO determination kit); type: cell-based, mouse; conditions: sildenafil 200 μg/mL, vs control group (p<0.05), FIG. 18
Experimental: 4. Detection of NO Content
TM3 cells were cultured with the oyster peptide culture solution for 24 h, the obtained culture solution was centrifuged, a supernatant was taken and mixed uniformly, and the content of NO was detected according to instructions of NO determination kit.
Operation procedure for detecting NO: (1) Reagent preparation: all reagents were taken out and equilibrated to room temperature for use. (2) 100 μM standard working solution: 5 μL of concentrated standard was added to 495 μL of reaction buffer and mixed well. […] After the incubation was over, the microplate was taken out, placed into an incubator at 37° C. and further incubated for 60 min, and then taken out and placed into a microplate reader for reading at 540 nm. (5) Quantitative calculation of total nitric oxide in samples:
NO is a small fat-soluble molecule with unstable chemical properties and is produced by a catalyzed reaction of nitric oxide synthase in a body, and it can cause the expansion of blood vessels in the body. […] The effect of the oyster peptide on the NO content in TM3 cells was detected according to the instructions of NO determination kit. […]

CCCc1nn(C)c2c(=O)[nH]c(-c3cc(S(=O)(=O)N4CCN(C)CC4)ccc3OCC)nc12 [sildenafil]
dihydrotestosterone secreted by TM3 cells [1]: significantly promoting | NO content in TM3 cells [2]: increased significantly
